Reference: ChEMBL document CHEMBL1156474, “Phenotypic and structural analyses of hepatitis C virus NS3 protease Arg155 variants: sensitivity to telaprevir (VX-950) and interferon alpha” (J Biol Chem, 2007)

Key:
Hepatitis C virus [1] = assay: Ratio of IC50 for HCV 1b with NS3-4 R155K mutation to IC50 for wild type HCV 1b; assay type: functional, Hepacivirus hominis, genotype 1b
Hepatitis C virus [2] = assay: Ratio of IC50 for HCV 1b with NS3-4A R155T mutation to IC50 for wild type HCV 1b; assay type: functional, Hepacivirus hominis, genotype 1b
Hepatitis C virus [3] = assay: Ratio of IC50 for HCV 1b with NS3-4A R155G mutation to IC50 for wild type HCV 1b; assay type: functional, Hepacivirus hominis, genotype 1b
Hepatitis C virus [4] = assay: Antiviral activity against wild type HCV 1b Con1 in human Huh7 cells after 48 hrs by replicon cell assay; assay type: functional, organism-based, Hepacivirus hominis; conditions: genotype 1b Con 1, Huh-7, 48 h
Hepatitis C virus [5] = assay: Antiviral activity against HCV 1b Con1 with NS3-4A R155K mutation in human Huh7 cells after 48 hrs by replicon cell assay; assay type: functional, organism-based, Hepacivirus hominis; conditions: genotype 1b Con 1, Huh-7, 48 h
Hepatitis C virus [6] = assay: (§1) Antiviral activity against HCV 1b with NS3-4A R155T mutation in human Huh7 cells after 48 hrs by replicon cell assay; assay type: functional, organism-based, Hepacivirus hominis; conditions: genotype 1b, Huh-7, 48 h
Hepatitis C virus [7] = assay: Antiviral activity against HCV 1b with NS3-4A R155M mutation in human Huh7 cells after 48 hrs by replicon cell assay; assay type: functional, organism-based, Hepacivirus hominis; conditions: genotype 1b, Huh-7, 48 h
Hepatitis C virus [8] = assay: Antiviral activity against wild type HCV in human Huh7.5 cells assessed as replication capacity by luciferase assay; assay type: functional, Hepacivirus hominis, Huh-7
Hepatitis C virus [9] = assay: Antiviral activity against HCV with NS3-4A R155K mutation in human Huh7.5 cells after assessed as replication capacity by luciferase assay relative to wild type HCV; assay type: functional, Hepacivirus hominis, Huh-7
Hepatitis C virus [10] = assay: Antiviral activity against HCV with NS3-4A R155T mutation in human Huh7.5 cells assessed as replication capacity by luciferase assay relative to wild type HCV; assay type: functional, Hepacivirus hominis, Huh-7
Hepatitis C virus [11] = assay: Antiviral activity against HCV with NS3-4A R155S mutation in human Huh7.5 cells assessed as replication capacity by luciferase assay relative to wild type HCV; assay type: functional, Hepacivirus hominis, Huh-7
Hepatitis C virus [12] = assay: Antiviral activity against HCV with NS3-4A R155I mutation in human Huh7.5 cells assessed as replication capacity by luciferase assay relative to wild type HCV; assay type: functional, Hepacivirus hominis, Huh-7
Hepatitis C virus [13] = assay: Antiviral activity against HCV with NS3-4A R155M mutation in human Huh7.5 cells assessed as replication capacity by luciferase assay relative to wild type HCV; assay type: functional, Hepacivirus hominis, Huh-7
Hepatitis C virus [14] = assay: Antiviral activity against HCV with NS3-4A R155G mutation in human Huh7.5 cells assessed as replication capacity by luciferase assay relative to wild type HCV; assay type: functional, Hepacivirus hominis, Huh-7
Hepatitis C virus [15] = assay: Ratio of IC50 for HCV 1b with NS3-4A R155I mutation to IC50 for wild type HCV 1b; assay type: functional, Hepacivirus hominis, genotype 1b
Hepatitis C virus [16] = assay: Antiviral activity against HCV 1b with NS3-4A R155G mutation in human Huh7 cells after 48 hrs by replicon cell assay; assay type: functional, organism-based, Hepacivirus hominis; conditions: genotype 1b, Huh-7, 48 h
Hepatitis C virus [17] = assay: Ratio of IC50 for HCV 1b with NS3-4A R155S mutation to IC50 for wild type HCV 1b; assay type: functional, Hepacivirus hominis, genotype 1b
Hepatitis C virus [18] = assay: Ratio of IC50 for HCV 1b with NS3-4A R155M mutation to IC50 for wild type HCV 1b; assay type: functional, Hepacivirus hominis, genotype 1b
[19] = Inhibition of wild type HCV 1a NS3-4A protease after 60 mins
NS3 protease [20] = molecular target: NS3 protease (Hepacivirus C, UniProt C1KIQ2, R155K); assay: Inhibition of HCV 1a NS3-4A R155K mutant protease after 60 mins; set-up: species or system Hepatitis C virus subtype 1a
NS3 protease [21] = molecular target: NS3 protease (Hepacivirus C, UniProt C1KIQ2, R155T); assay: Inhibition of HCV 1a NS3-4A R155T mutant protease after 60 mins; set-up: species or system Hepatitis C virus subtype 1a
NS3 protease [22] = molecular target: NS3 protease (Hepacivirus C, UniProt C1KIQ2, R155S); assay: Inhibition of HCV 1a NS3-4A protease R155S mutant after 60 mins; set-up: species or system Hepatitis C virus subtype 1a
NS3 protease [23] = molecular target: NS3 protease (Hepacivirus C, UniProt C1KIQ2, R155I); assay: Inhibition of HCV 1a NS3-4A R155I mutant protease after 60 mins; set-up: species or system Hepatitis C virus subtype 1a
Chain of NS3 protease (Hepacivirus C, UniProt C1KIQ2, R155I) (C1KIQ2 entry or part of it R155I): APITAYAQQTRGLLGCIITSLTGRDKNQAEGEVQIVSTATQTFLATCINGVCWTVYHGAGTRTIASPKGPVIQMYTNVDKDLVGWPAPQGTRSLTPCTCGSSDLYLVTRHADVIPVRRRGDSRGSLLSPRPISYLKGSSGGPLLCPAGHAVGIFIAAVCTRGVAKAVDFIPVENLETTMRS

Hepatitis C virus [24] = assay: as §1; assay type: functional, organism-based, Hepacivirus hominis; conditions: genotype 1b, Huh-7, 48 h; remark: listed apart in the source
Hepatitis C virus [25] = assay: Antiviral activity against HCV 1b with NS3-4A R155I mutation in human Huh7 cells after 48 hrs by replicon cell assay; assay type: functional, organism-based, Hepacivirus hominis; conditions: genotype 1b, Huh-7, 48 h
[26] = system: Hepatitis C virus subtype 1a
Description: Activity of wild type HCV 1a NS3-4A protease

[27] = substrate: CCC[C@H](NC(=O)[C@@H]1[C@H]2CCC[C@H]2CN1C(=O)[C@@H](NC(=O)[C@@H](NC(=O)c1cnccn1)C1CCCCC1)C(C)(C)C)C(=O)C(=O)NC1CC1; conditions: Hepatitis C virus subtype 1a
[28] = substrate: CCC[C@H](NC(=O)[C@@H]1[C@H]2CCC[C@H]2CN1C(=O)[C@@H](NC(=O)[C@@H](NC(=O)c1cnccn1)C1CCCCC1)C(C)(C)C)C(=O)C(=O)NC1CC1; conditions: Hepatitis C virus subtype 1a; remark: listed apart in the source
[29] = substrate: CCC[C@H](NC(=O)[C@@H]1[C@H]2CCC[C@H]2CN1C(=O)[C@@H](NC(=O)[C@@H](NC(=O)c1cnccn1)C1CCCCC1)C(C)(C)C)C(=O)C(=O)NC1CC1; conditions: Hepatitis C virus subtype 1a; remark: listed apart in the source

Q: What does the source list for NC(=O)c1ncn([C@@H]2O[C@H](CO)[C@@H](O)[C@H]2O)n1 [RIBAVIRIN]?
A: fold change (FC) (Hepatitis C virus [1]): 0.6; fold change (FC) (Hepatitis C virus [2]): 0.6; fold change (FC) (Hepatitis C virus [3]): 0.7; IC50 (Hepatitis C virus [4]): 58 µM; IC50 (Hepatitis C virus [5]): 37 µM; IC50 (Hepatitis C virus [6]): 32 µM; IC50 (Hepatitis C virus [7]): 39 µM

Q: Which Activity (Hepatitis C virus [8]) does the source give for CCC[C@H](NC(=O)[C@@H]1[C@H]2CCC[C@H]2CN1C(=O)[C@@H](NC(=O)[C@@H](NC(=O)c1cnccn1)C1CCCCC1)C(C)(C)C)C(=O)C(=O)NC1CC1 [TELAPREVIR] here?
A: Its Activity is 100%.

Q: What about the Activity (Hepatitis C virus [9]) of the same molecule?
A: Its Activity is 80%.

Q: And the Activity (Hepatitis C virus [10])?
A: The Activity was 41%.

Q: And the Activity (Hepatitis C virus [11])?
A: Its Activity is 45%.

Q: What about the Activity (Hepatitis C virus [12]) of the same molecule?
A: The Activity was 19%.

Q: And the Activity (Hepatitis C virus [13])?
A: Its Activity is 18%.

Q: And the Activity (Hepatitis C virus [14])?
A: The Activity was 10%.

Q: What about the “fold change (FC)” value (Hepatitis C virus [15]) of the same molecule?
A: Its value is 24.

Q: And the IC50 (Hepatitis C virus [16])?
A: The IC50 was 3.6 µM.

Q: What about the “fold change (FC)” value (Hepatitis C virus [1]) of the same molecule?
A: Its value is 7.4.

Q: And the “fold change (FC)” value (Hepatitis C virus [2])?
A: Its value is 19.8.

Q: What about the “fold change (FC)” value (Hepatitis C virus [17]) of the same molecule?
A: The value was 4.1.

Q: And the “fold change (FC)” value (Hepatitis C virus [18])?
A: Its value is 5.5.

Q: What about the “fold change (FC)” value (Hepatitis C virus [3]) of the same molecule?
A: The value was 7.4.

Q: And the IC50 [19]?
A: Its IC50 is 0.05 µM.

Q: What about the IC50 (NS3 protease [20]) of the same molecule?
A: Its IC50 is 0.51 µM.

Q: And the IC50 (NS3 protease [21])?
A: Its IC50 is 0.49 µM.

Q: And the IC50 (NS3 protease [22])?
A: Its IC50 is 1.15 µM.

Q: What about the IC50 (NS3 protease [23]) of the same molecule?
A: Its IC50 is 0.88 µM.

Q: And the IC50 (Hepatitis C virus [4])?
A: Its IC50 is 0.49 µM.

Q: What about the IC50 (Hepatitis C virus [5]) of the same molecule?
A: The IC50 was 3.6 µM.

Q: And the IC50 (Hepatitis C virus [6])?
A: The IC50 was 9.6 µM.

Q: And the IC50 (Hepatitis C virus [24])?
A: Its IC50 is 2 µM.

Q: What about the IC50 (Hepatitis C virus [25]) of the same molecule?
A: The IC50 was 11.7 µM.

Q: And the IC50 (Hepatitis C virus [7])?
A: Its IC50 is 2.7 µM.

Q: What about the Km [26] of the same molecule?
A: Its Km is 53 µM.

B1: NS3 protease (Hepacivirus C), C1KIQ2 R155K (protein)
chain: APITAYAQQTRGLLGCIITSLTGRDKNQAEGEVQIVSTATQTFLATCINGVCWTVYHGAGTRTIASPKGPVIQMYTNVDKDLVGWPAPQGTRSLTPCTCGSSDLYLVTRHADVIPVRRRGDSRGSLLSPRPISYLKGSSGGPLLCPAGHAVGIFKAAVCTRGVAKAVDFIPVENLETTMRS
Q: With B1 as the molecule, how does the Km [27] read?
A: Its Km is 168 µM.

B2: NS3 protease (Hepacivirus C), C1KIQ2 R155T (protein)
chain: APITAYAQQTRGLLGCIITSLTGRDKNQAEGEVQIVSTATQTFLATCINGVCWTVYHGAGTRTIASPKGPVIQMYTNVDKDLVGWPAPQGTRSLTPCTCGSSDLYLVTRHADVIPVRRRGDSRGSLLSPRPISYLKGSSGGPLLCPAGHAVGIFTAAVCTRGVAKAVDFIPVENLETTMRS
Q: With B2 as the molecule, how does the Km [28] read?
A: Its Km is 68 µM.

B3: NS3 protease (Hepacivirus C), C1KIQ2 R155S (protein)
chain: APITAYAQQTRGLLGCIITSLTGRDKNQAEGEVQIVSTATQTFLATCINGVCWTVYHGAGTRTIASPKGPVIQMYTNVDKDLVGWPAPQGTRSLTPCTCGSSDLYLVTRHADVIPVRRRGDSRGSLLSPRPISYLKGSSGGPLLCPAGHAVGIFSAAVCTRGVAKAVDFIPVENLETTMRS
Q: With B3 as the molecule, how does the Km [29] read?
A: Its Km is 552 µM.
